Results: patent US10098352B2, “Honeybee repellents and uses thereof” (Inscent, Inc., priority 2011, dated 2018)

Experiments:
OBP2 = assay: Fluorescent-quench ligand-protein-binding assay (OBP2 binding screen); set-up: species or system Apis mellifera; key: Low, indicates no detectable binding to OBP2.; Moderate, indicates that 50% or less of the compound bound to OBP2.; Strong, indicates that 51% or more of the compound bound to OBP2
Excerpt: To identify a honeybee repellent disclosed herein, candidate compounds were screened based upon the fact that 2-heptanone is an established repellent of bees. 2-heptanone is thought to mediate its behavioral response through binding to a specific odorant-binding protein called OBP2. Therefore compounds that bind OBP2 have the potential to act as odor “mimics” of 2-heptanone. By utilizing a fluorescent-quench, ligand-protein-binding assay, 30,000 compounds from the DIVERSET® library (ChemBridge Corp., San Diego, Calif.), a chemical library, were screened and over 150 candidate compounds were isolated that bind OBP2 (Table 1). Such assays are generally known in the art. See, e.g., Briand, et al., Ligand-Binding Properties and Structural Characterization of a Novel Rat Odorant-Binding Protein Variant, Eur. J. Biochem. 267(10): 3079-3089 (2000); Briand, et al., Ligand Binding and Physico-Chemical Properties of ASP2, A Recombinant Odorant-Binding Protein From Honeybee (Apis mellifera L.), Eur. J. Biochem. 268(3): 752-760 (2001); Briand, et al., Characterization of a Chemosensory Protein (ASP3c) from Honeybee (Apis mellifera L.) as a Brood Pheromone Carrier, Eur. J. Biochem. 269(18): 4586-4596 (2002), each of which is hereby incorporated by reference in its entirety.

[1] = tested on: Apis mellifera Carniolan foraging worker honeybees; assay: Proboscis extension response (PER) assay in bees conditioned to 2-heptanone; type: in vivo; conditions: final compound concentration 0.5% (TRITON X-100/water), 4 s exposure; only bees PER-positive to 2-heptanone and negative to controls counted
Protocol: To determine whether a living honeybee can recognize a candidate compound, these compounds were tested using a proboscis extension response (PER) assay using classical conditioning approaches. Proboscis extension response conditioning is a case of appetitive learning, in which bees learn to associate odor stimuli with sucrose reward in the laboratory. In this case, bees were conditioned to produce a PER to 2-heptanone as the conditioned stimulus and a sugar reward as the unconditioned stimulus. These trained bees were then exposed to an odor pulse of a candidate compound to test whether a candidate compound would also produce a PER. If the candidate compound “mimics” 2-heptanone then the honeybee will extend its proboscis.
For conditioning procedures, Apis mellifera Carniolan foraging worker honeybees were obtained from a local apiary (typically 60 bees per shipment). The honeybees were held overnight in insect cages with food and water freely available, in an environmentally controlled room on a light cycle similar to the ambient cycle at the time of the assay.
For conditioning procedures, all tests were done in an odorant delivery apparatus set inside a fume hood. The apparatus comprised a set of open-ended, horizontal, 3 cm diameter by 10 cm long plastic tubes. Each tube was designed where a honeybee could be positioned at the distal end of a tube, with the opening at the other end of the tube located proximal to an inlet of the fume hood. To deliver an odorant, room air was pumped by a diaphragm pump through a particle filter via 0.25 inch plastic tubing at approximately 0.7 m/sec. The air flow passes into the headspace above an odorant (0.5% [v/v]2-heptanone dissolved in odorless light paraffin oil) contained in a 100 mL bottle. The headspace air then passes through another plastic tube to a manifold of 4-way valves, each of which was attached near the proximal end of a plastic tube containing a bee. Each bee was exposed separately for a desired time period to the odorant by opening and closing the appropriate valve. When each valve was closed, the odor was flushed away immediately by the continuous fume hood air stream.
To train a honeybee to respond to a conditioned and unconditioned stimuli, bees were placed, without anesthesia, in individual 1.5 mL micro-centrifuge holding tubes and held overnight without access to food or water. The holding tubes containing the starved bees were placed in racks in groups of eight. One rack at a time was placed behind the odorant delivery apparatus so that each bee's head is centered at the distal end of a horizontal plastic tube. Each bee was exposed to the 2-heptanone odorant alone for four seconds, and then while being fed an 80% sucrose solution for and additional three seconds. The sucrose solution was delivered on a piece of saturated filter paper held in forceps. […] Positive and negative responses were recorded. A positive PER was scored when a bee extended its proboscis before the sucrose appeared. In a typical trial, 48 individual bees were subjected to conditioning. Six rounds of training were done before testing began, and typically a majority of the bees were successfully conditioned by the second or third round of training.
After conditioning, honeybees were tested with the candidate compounds the same day or on the following day or, most commonly, both. When held overnight, bees were fed with sucrose and kept in their holding tubes. When tested the day after training, bees were given one or more rounds of conditioning with 2-heptatone to refresh their memories. Candidate compounds stocks were made at 5% (w/v) in polyoxyethylene octyl phenyl ether (TRITON® X-100), a non-ionic detergent/surfactant, and stored at 4° C. This detergent is similar to substances used as carriers for a variety of commercial pest-control agents, can act as a solvent for both hydrophilic and hydrophobic substances, and is itself nearly odorless. […]

Structure (SMILES) | OBP2 binding characteristic of compound (OBP2) | 2-heptanone positive bees testing positive to compound [1] [%]
CCOC(=O)c1cc(-c2cccc(N)c2)nc2ccccc12 [compound 21] | Strong (Strong, indicates that 51% or more of the compound bound to OBP2.) | 4.4
c1ccc(CCN(Cc2ccccc2)Cc2cccnc2)cc1 [compound 39] | Moderate (Moderate, indicates that 50% or less of the compound bound to OBP2.) | 1.9
Ic1ccc(-c2cn3ccsc3n2)cc1 [compound 53] | Moderate (Moderate, indicates that 50% or less of the compound bound to OBP2.) | 18.2
COc1ccc(CN2CCN(c3ccc(C)cc3)CC2)c(C)c1C [compound 49] | – | 0.0
O=C(Nc1ccccc1)Nc1ccccc1C#Cc1ccccc1 [compound 57] | Moderate (Moderate, indicates that 50% or less of the compound bound to OBP2.) | 16.7
CCn1c2ccccc2c2cc(C=Nc3ccc(C(N)=O)cc3)ccc21 [compound 56] | Moderate (Moderate, indicates that 50% or less of the compound bound to OBP2.) | 18.2
COc1ccc2ccccc2c1C=NN1C(=O)c2ccccc2C1=O [compound 13] | – | 8.7
COc1ccc(CN2CCN(C)CC2)c(C)c1C [compound 62] | – | 11.6
COC(=O)c1cc(S(=O)(=O)Nc2ccc(Br)cc2)ccc1Cl [compound 44] | Moderate (Moderate, indicates that 50% or less of the compound bound to OBP2.) | 7.3
CN1CCN(Cc2cc3c(cc2[N+](=O)[O-])OCO3)CC1 [compound 45] | – | 11.6
COc1cccc(C(=O)Oc2ccc3c(c2)C(C)=CC(C)(C)N3)c1 [compound 37] | Moderate (Moderate, indicates that 50% or less of the compound bound to OBP2.) | 14.4
O=C(NCCCOC(=O)c1ccc(Cl)cc1)c1ccc(Cl)cc1 [compound 58] | Moderate (Moderate, indicates that 50% or less of the compound bound to OBP2.) | 8.3
O=[N+]([O-])c1ccc(N2CCOCC2)cc1OCCOc1ccccc1 [compound 14] | Moderate (Moderate, indicates that 50% or less of the compound bound to OBP2.) | 3.9
COC(=O)C1=C(C(=O)OC)SC(=C2C(=S)C(C)(C)N(C)c3ccccc32)S1 [compound 4] | – | 4.7
O=[N+]([O-])c1cc2c(cc1CN1CCN(c3cccc(Cl)c3)CC1)OCO2 [compound 64] | Moderate (Moderate, indicates that 50% or less of the compound bound to OBP2.) | 7.0
CCOc1ccc(C=Nc2ccc(Br)c(Cl)c2)cc1 [compound 12] | – | 5.8
COc1ccc(CN2CCN(Cc3cccc(C)c3)CC2)cc1 [compound 65] | – | 6.3
COc1ccc(CN2CCN(c3cccc(C)c3C)CC2)c(C)c1C [compound 29] | Low* | 0.0
COc1ccc(CN(C)CCN(C)C)c(C)c1C [compound 66] | – | 3.1

Structure (SMILES) | OBP2 binding characteristic of compound (OBP2) | 2-heptanone positive bees testing positive to compound [1] [%]
CC1CN(c2ccc([N+](=O)[O-])c(NCCOc3ccc(Cl)cc3)c2)CCN1 (stereo not drawn) [compound 60] | Moderate (Moderate, indicates that 50% or less of the compound bound to OBP2.) | 25.0
COC(=O)C1=C(C(=O)OC)SC(=C2C(=S)C(C)(C)Nc3cc(C)ccc32)S1 [compound 19] | Strong (Strong, indicates that 51% or more of the compound bound to OBP2.) | 2.8
COc1cc(C)c(CN2CCN(CCO)CC2)cc1C [compound 31] | – | 0.0
O=c1[nH]c2ccccc2nc1-c1ccccc1NCc1ccc(F)cc1 [compound 18] | Strong (Strong, indicates that 51% or more of the compound bound to OBP2.) | 4.1
O=[N+]([O-])c1cc2c(cc1CN1CCN(c3ccccc3)CC1)OCO2 [compound 61] | Moderate (Moderate, indicates that 50% or less of the compound bound to OBP2.) | 17.4
CCN1C(=O)C(=Cc2ccc(O)cc2)SC1=S [compound 15] | Strong (Strong, indicates that 51% or more of the compound bound to OBP2.) | 4.1
COc1ccc(CN2CCOCC2)c(C)c1C [compound 63] | – | 10.9
COc1ccc(CN(C)CCN(C)C)c(C)c1C [compound 32] | – | 2.4
CCOC(=O)C1=C(C)NC(C)=C(C(=O)OC)C1c1ccc(Br)cc1 (stereo not drawn) [compound 41] | Moderate (Moderate, indicates that 50% or less of the compound bound to OBP2.) | 1.4
Cc1ccc2c(c1Br)C(=NNC(=O)C1CC13CCC3)C(=O)N2 (stereo not drawn) [compound 55] | Moderate (Moderate, indicates that 50% or less of the compound bound to OBP2.) | 13.6
O=C(C=Cc1c[nH]c2ccccc12)c1ccc(C(=O)C=Cc2c[nH]c3ccccc23)cc1 [compound 51] | – | 14.8
COc1ccc2oc(C)c(C(=O)c3ccc(Br)cc3)c2c1 [compound 17] | Strong (Strong, indicates that 51% or more of the compound bound to OBP2.) | 6.2
O=[N+]([O-])c1cc2c(cc1CN1CCSCC1)OCO2 [compound 47] | – | 18.3
O=[N+]([O-])c1cc2c(cc1CN1CCN(c3cccc(Cl)c3)CC1)OCO2 [compound 24] | – | 4.8
O=C(C=Cc1c[nH]c2ccccc12)c1ccc(-c2ccccc2)cc1 [compound 52] | – | 13.9
COc1cc(CN2CCN(Cc3ccc4c(c3)OCO4)CC2)c([N+](=O)[O-])cc1OC [compound 46] | – | 12.8
COc1ccccc1N1C(=O)C(=Cc2ccc(Cl)cc2)SC1=S [compound 5] | – | 7.1
CN(CCc1ccccn1)Cc1cc2c(cc1[N+](=O)[O-])OCO2 [compound 48] | – | 18.9
CCN(CC)c1ccc2c(C)c([N+](=O)[O-])c(=O)oc2c1 [compound 6] | – | 0.0
